Test results: patent US4587254A, “1,3,4-thiadiazole derivatives, process for the production thereof and use thereof as antiulcer agent” (Wakamoto Pharmaceutical Co., Ltd., priority 1983, dated 1986)
Values joined by “and” are separate entries in the source; they are usually repeats but may differ in a detail not shown here. Identical values can stand only once. Counter-ions that a name gives are not always drawn.

Legend:
[1] = tested on: secretion of acid in the stomach; experiment: Inhibition of the secretion of acid in the stomach (pylorus-ligated rats); format: in vivo, rats (Donryu male); settings: duodenum, 6 h; for Acidity / Gastric juice secreted / Inhibition rate (acidity) / Inhibition rate (amount of acid discharged) / Inhibition rate (gastric juice secreted) / Inhibition rate (pepsin activity) / Pepsin activity / Amount of acid discharged: five rats
Description: The pylorus was ligated. Immediately thereafter, a test sample was placed in the duodenum and the abdomen was closed. Six hour after the administration of the test sample, the stomach was taken out under […] anesthesia and the gastric juice was taken out. The gastric juice was centrifuged. The quantity, acidity and pepsin activity of the supernatant liquid were determined. […] The amount of the acid discharged per hour was calculated by multiplying the acidity by the quantity of the juice. Pepsin activity was determined by Anson's method [J. gen. […] The results of the tests of TAS are the averages of the group consisting of ten rats.

[2] = Antiulcer effects (pylorus-ligated rats); format: in vivo, rats (Donryu); settings: for Inhibition rate (ulcer): duodenum, 8 h
Description: Donryu rats weighing 200 to 230 g were used. Each group consisted of 6 rats. After fasting for 72 h, the rats were subjected to an abdominal operation under etheral anesthesia. The pylorus was ligated. Immediately thereafter, a given dose of a test sample was placed in the duodenum. Thereafter, neither food nor water was given. After 8 h, the stomach was taken out under etheral anesthesia and immersed in 1% formalin solution for 10 min. The stomach was cut along the greater curvature. The area of ulcer formed in the forestomach was determined by an anatomico-microscopicobservation (magnification: ×10). The rate of control of the ulcer (%) was calculated as compared with a control.

[3] = Acute toxicity in mice (LD50); settings: mouse, in vivo
Description: (§1) For example, the acute toxicities of a compound of the formula (I) wherein R2 represents --NH2 in mice and rats are as shown in Table 1. The acute toxicities of compounds of the formula (I) wherein R2 represents --NHCH3, --SH or --SCH3 are nearly equal to that shown in Table 1.

[4] = Acute toxicity in rats (LD50); settings: rat, in vivo
Description: as §1

Compound: Nc1nnc(NCCCOc2cccc(CN3CCCCC3)c2)s1 [TAS, 2-N-{3-[3-(1-piperidinomethyl)phenoxy]propyl}-amino-5-amino-1,3,4-thiadiazole hydrochloride]
- Rate of control of the amount of acid discharged ([1]; Table 5, 6.7 mg/kg, ten rats): 85.7%
- Rate of control of the amount of pepsin discharged ([1]; Table 5, 6.7 mg/kg, ten rats): 13.6%
- Rate of inhibition of acidity ([1]; Table 5, 6.7 mg/kg, ten rats): 67.4%
- Rate of inhibition of the secretion of gastric juice ([1]; Table 5, 6.7 mg/kg, ten rats): 57.7%
- Rate of control of the amount of acid discharged ([1]; Table 5, 20.0 mg/kg, ten rats): 91.4%
- Rate of control of the amount of pepsin discharged ([1]; Table 5, 20.0 mg/kg, ten rats): 25.8%
- Rate of inhibition of acidity ([1]; Table 5, 20.0 mg/kg, ten rats): 74.0%
- Rate of inhibition of the secretion of gastric juice ([1]; Table 5, 20.0 mg/kg, ten rats): 65.4%
- Rate of control of the amount of acid discharged ([1]; Table 5, 60.0 mg/kg, ten rats): 100%
- Rate of control of the amount of pepsin discharged ([1]; Table 5, 60.0 mg/kg, ten rats): 86.4%
- Rate of inhibition of acidity ([1]; Table 5, 60.0 mg/kg, ten rats): 100%
- Rate of inhibition of the secretion of gastric juice ([1]; Table 5, 60.0 mg/kg, ten rats): 82.7%
- Rate of control of the amount of acid discharged ([1]; Table 6, 0.7 mg/kg): 40.2%
- Rate of control of the amount of pepsin discharged ([1]; Table 6, 0.7 mg/kg): -1.3%
- Rate of inhibition of acidity ([1]; Table 6, 0.7 mg/kg): 22.4%
- Rate of inhibition of the secretion of gastric juice ([1]; Table 6, 0.7 mg/kg): 23.51%
- Rate of control of the amount of acid discharged ([1]; Table 6, 6.7 mg/kg): 81.5%
- Rate of control of the amount of pepsin discharged ([1]; Table 6, 6.7 mg/kg): 15.2%
- Rate of inhibition of acidity ([1]; Table 6, 6.7 mg/kg): 65.7%
- Rate of inhibition of the secretion of gastric juice ([1]; Table 6, 6.7 mg/kg): 52.9%
- Rate of control of the amount of acid discharged ([1]; Table 6, 20.0 mg/kg): 91.5%
- Rate of control of the amount of pepsin discharged ([1]; Table 6, 20.0 mg/kg): 30.4%
- Rate of inhibition of acidity ([1]; Table 6, 20.0 mg/kg): 75.0%
- Rate of inhibition of the secretion of gastric juice ([1]; Table 6, 20.0 mg/kg): 66.7%
- Inhibition rate (ulcer) ([2]; 6.3 mg/kg): 60.0%
- Inhibition rate (ulcer) ([2]; 12.5 mg/kg): 90.0%
- Inhibition rate (ulcer) ([2]; 25.0 mg/kg): 95.0%
- Inhibition rate (ulcer) ([2]; 50.0 mg/kg): 100%
- antiulcer effects compared with 200 mg/kg of cimetidine or ranitidine ([2]; 12.5 to 50 mg/kg): far superior

Compound: Nc1nnc(NCCCOc2cccc(CN3CCCCC3)c2)s1 [2-N-{3-[3-(1-piperidinomethyl)phenoxy]propyl}amino-5-amino-1,3,4-thiadiazole]
- LD50 ([3]; intravenous injection): 53.2 mg/kg
- LD50 ([3]; po, peroral): 1220 mg/kg
- LD50 ([4]; intravenous injection): 91.6 mg/kg
- LD50 ([4]; po, peroral): 1410 mg/kg

Compound: Sc1nnc(NCCCOc2cccc(CN3CCCCC3)c2)s1 [H2 --37, 2-N-{3-[3-(1-piperidinomethyl)phenoxy]propyl}amino-5-mercapto-1,3,4-thiadiazole]
- Acidity ([1]; 6.7 mg/kg): 85.0 meq H^+ /l
- Gastric juice secreted ([1]; 6.7 mg/kg): 4.6 mL
- Inhibition rate (acidity) ([1]; 6.7 mg/kg): 4.5%
- Inhibition rate (amount of acid discharged) ([1]; 6.7 mg/kg): 22.0%
- Inhibition rate (gastric juice secreted) ([1]; 6.7 mg/kg): 27.0%
- Inhibition rate (pepsin activity) ([1]; 6.7 mg/kg): -7.3%
- Pepsin activity ([1]; 6.7 mg/kg): 5.9 mg/mL
- Acidity ([1]; 20.0 mg/kg): 81.0 meq H^+ /l
- Gastric juice secreted ([1]; 20.0 mg/kg): 5.2 mL
- Inhibition rate (acidity) ([1]; 20.0 mg/kg): 9.0%
- Inhibition rate (amount of acid discharged) ([1]; 20.0 mg/kg): 21.0%
- Inhibition rate (gastric juice secreted) ([1]; 20.0 mg/kg): 18.0%
- Inhibition rate (pepsin activity) ([1]; 20.0 mg/kg): -7.3%
- Pepsin activity ([1]; 20.0 mg/kg): 5.9 mg/mL
- Acidity ([1]; 60.0 mg/kg): 67.0 meq H^+ /l
- Gastric juice secreted ([1]; 60.0 mg/kg): 3.6 mL
- Inhibition rate (acidity) ([1]; 60.0 mg/kg): 24.0%
- Inhibition rate (amount of acid discharged) ([1]; 60.0 mg/kg): 57.0%
- Inhibition rate (gastric juice secreted) ([1]; 60.0 mg/kg): 43.0%
- Inhibition rate (pepsin activity) ([1]; 60.0 mg/kg): 1.8%
- Pepsin activity ([1]; 60.0 mg/kg): 5.4 mg/mL
- Amount of acid discharged ([1]; Table 4, 6.7 mg/kg): 67.0 μEq/h
- Amount of acid discharged ([1]; Table 4, 20.0 mg/kg): 68.0 μEq/h
- Amount of acid discharged ([1]; Table 4, 60.0 mg/kg): 37.0 μEq/h

Compound: CN/C(=N/CCSCc1nc[nH]c1C)NC#N [cimetidine, reference compound]
- Acidity ([1]; 6.7 mg/kg): 85.0 meq H^+ /l and 76.0 meq H^+ /l
- Gastric juice secreted ([1]; 6.7 mg/kg): 5.4 mL and 5.0 mL
- Pepsin activity ([1]; 6.7 mg/kg): 7.0 mg/mL and 5.5 mg/mL
- Acidity ([1]; 20.0 mg/kg): 77.0 meq H^+ /l and 79.0 meq H^+ /l
- Gastric juice secreted ([1]; 20.0 mg/kg): 4.8 mL and 4.5 mL
- Inhibition rate (acidity) ([1]; 20.0 mg/kg): 5.4% and 11.0%
- Inhibition rate (amount of acid discharged) ([1]; 20.0 mg/kg): 31.0% and 29.0%
- Inhibition rate (gastric juice secreted) ([1]; 20.0 mg/kg): 17.0% and 29.0%
- Inhibition rate (pepsin activity) ([1]; 20.0 mg/kg): 0% and 7.3%
- Pepsin activity ([1]; 20.0 mg/kg): 6.2 mg/mL and 5.1 mg/mL
- Acidity ([1]; 60.0 mg/kg): 61.0 meq H^+ /l and 62.0 meq H^+ /l
- Gastric juice secreted ([1]; 60.0 mg/kg): 3.7 mL and 4.5 mL
- Inhibition rate (acidity) ([1]; 60.0 mg/kg): 25.0% and 31.0%
- Inhibition rate (amount of acid discharged) ([1]; 60.0 mg/kg): 55.0% and 45.0%
- Inhibition rate (gastric juice secreted) ([1]; 60.0 mg/kg): 36.0% and 29.0%
- Pepsin activity ([1]; 60.0 mg/kg): 6.3 mg/mL
- Amount of acid discharged ([1]; Table 3, 6.7 mg/kg): 79.0 μEq/H
- Amount of acid discharged ([1]; Table 3, 20.0 mg/kg): 57.0 μEq/H
- Amount of acid discharged ([1]; Table 3, 60.0 mg/kg): 38.0 μEq/H
- Amount of acid discharged ([1]; Table 4, 6.7 mg/kg): 67.0 μEq/h
- Amount of acid discharged ([1]; Table 4, 20.0 mg/kg): 61.0 μEq/h
- Amount of acid discharged ([1]; Table 4, 60.0 mg/kg): 47.0 μEq/h
- Rate of control of the amount of acid discharged ([1]; Table 5, 6.7 mg/kg, ten rats): 2.5%
- Rate of control of the amount of pepsin discharged ([1]; Table 5, 6.7 mg/kg, ten rats): -6.1%
- Rate of inhibition of acidity ([1]; Table 5, 6.7 mg/kg, ten rats): 2.9%
- Rate of inhibition of the secretion of gastric juice ([1]; Table 5, 6.7 mg/kg, ten rats): 3.8%
- Rate of control of the amount of acid discharged ([1]; Table 5, 20.0 mg/kg, ten rats): 25.6%
- Rate of control of the amount of pepsin discharged ([1]; Table 5, 20.0 mg/kg, ten rats): 6.1%
- Rate of inhibition of acidity ([1]; Table 5, 20.0 mg/kg, ten rats): 12.4%
- Rate of inhibition of the secretion of gastric juice ([1]; Table 5, 20.0 mg/kg, ten rats): 7.7%
- Rate of control of the amount of acid discharged ([1]; Table 5, 60.0 mg/kg, ten rats): 51.1%
- Rate of control of the amount of pepsin discharged ([1]; Table 5, 60.0 mg/kg, ten rats): 4.5%
- Rate of inhibition of acidity ([1]; Table 5, 60.0 mg/kg, ten rats): 30.9%
- Rate of inhibition of the secretion of gastric juice ([1]; Table 5, 60.0 mg/kg, ten rats): 28.8%
- Inhibition rate (ulcer) ([2]; 100 mg/kg): 10%
- Inhibition rate (ulcer) ([2]; 200 mg/kg): 60%

Compound: CNC(=C[N+](=O)[O-])NCCSCc1ccc(CN(C)C)o1 [ranitidine, reference compound]
- Rate of control of the amount of acid discharged ([1]; Table 5, 6.7 mg/kg, ten rats): 19.3%
- Rate of control of the amount of pepsin discharged ([1]; Table 5, 6.7 mg/kg, ten rats): 1.5%
- Rate of inhibition of acidity ([1]; Table 5, 6.7 mg/kg, ten rats): 11.3%
- Rate of inhibition of the secretion of gastric juice ([1]; Table 5, 6.7 mg/kg, ten rats): 7.7%
- Rate of control of the amount of acid discharged ([1]; Table 5, 20.0 mg/kg, ten rats): 54.2%
- Rate of control of the amount of pepsin discharged ([1]; Table 5, 20.0 mg/kg, ten rats): -4.5%
- Rate of inhibition of acidity ([1]; Table 5, 20.0 mg/kg, ten rats): 28.2%
- Rate of inhibition of the secretion of gastric juice ([1]; Table 5, 20.0 mg/kg, ten rats): 23.1%
- Rate of control of the amount of acid discharged ([1]; Table 5, 60.0 mg/kg, ten rats): 67.4%
- Rate of control of the amount of pepsin discharged ([1]; Table 5, 60.0 mg/kg, ten rats): -3.0%
- Rate of inhibition of acidity ([1]; Table 5, 60.0 mg/kg, ten rats): 50.1%
- Rate of inhibition of the secretion of gastric juice ([1]; Table 5, 60.0 mg/kg, ten rats): 34.6%
- Inhibition rate (ulcer) ([2]; 100 mg/kg): 50%
- Inhibition rate (ulcer) ([2]; 200 mg/kg): 85%

Compound: CNc1nnc(NCCCOc2cccc(CN3CCCCC3)c2)s1 [H2 --33, 2-N-{3-[3-(1-piperidinomethyl)phenoxy]-propyl}amino-5-methylamino-1,3,4-thiadiazole]
- Acidity ([1]; 6.7 mg/kg): 70.0 meq H^+ /l
- Gastric juice secreted ([1]; 6.7 mg/kg): 4.8 mL
- Inhibition rate (acidity) ([1]; 6.7 mg/kg): 14.0%
- Inhibition rate (amount of acid discharged) ([1]; 6.7 mg/kg): 35.0%
- Inhibition rate (gastric juice secreted) ([1]; 6.7 mg/kg): 17.0%
- Inhibition rate (pepsin activity) ([1]; 6.7 mg/kg): -3.2%
- Pepsin activity ([1]; 6.7 mg/kg): 6.4 mg/mL
- Acidity ([1]; 20.0 mg/kg): 52.0 meq H^+ /l
- Gastric juice secreted ([1]; 20.0 mg/kg): 2.5 mL
- Inhibition rate (acidity) ([1]; 20.0 mg/kg): 36.0%
- Inhibition rate (amount of acid discharged) ([1]; 20.0 mg/kg): 70.0%
- Inhibition rate (gastric juice secreted) ([1]; 20.0 mg/kg): 57.0%
- Inhibition rate (pepsin activity) ([1]; 20.0 mg/kg): 0%
- Pepsin activity ([1]; 20.0 mg/kg): 6.2 mg/mL
- Acidity ([1]; 60.0 mg/kg): 24.0 meq H^+ /l
- Gastric juice secreted ([1]; 60.0 mg/kg): 2.9 mL
- Inhibition rate (acidity) ([1]; 60.0 mg/kg): 70.0%
- Inhibition rate (amount of acid discharged) ([1]; 60.0 mg/kg): 88.0%
- Inhibition rate (gastric juice secreted) ([1]; 60.0 mg/kg): 50.0%
- Inhibition rate (pepsin activity) ([1]; 60.0 mg/kg): 21.0%
- Pepsin activity ([1]; 60.0 mg/kg): 4.9 mg/mL
- Amount of acid discharged ([1]; Table 3, 6.7 mg/kg): 54.0 μEq/H
- Amount of acid discharged ([1]; Table 3, 20.0 mg/kg): 25.0 μEq/H
- Amount of acid discharged ([1]; Table 3, 60.0 mg/kg): 10.0 μEq/H
